Results from the supplement of paper PMC10307832.

Columns and labels:
Assay in all cases: relative viability (nuclei count vs DMSO), 5 days (fraction); higher = more cells survive
[1] = compound: OCc1c[nH]c2ccccc12 [Indole-3-carbinol] + Cc1nc(NC(=O)N2CCC[C@H]2C(N)=O)sc1-c1ccnc(C(C)(C)C(F)(F)F)c1 [Alpelisib] (partner 2 µM)
How it was run: (§1)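 Lung cancer cell lines in 1536-well plates were dosed by pin tool the day after seeding, either with one drug alone or with a fixed anchor-drug dose plus five library-drug doses (not always all listed) in √10 steps. After 5 days, cells were fixed and their nuclei stained in one step (final 0.05% Triton X-100, 1% formaldehyde, 1 ug/ml Hoechst), then counted on 4× images. Relative viability is the nuclei count in treated wells divided by that in vehicle wells. Values are medians of duplicate plates.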

[2] = compound: OCc1c[nH]c2ccccc12 [Indole-3-carbinol] + CS(=O)(=O)CCNCc1ccc(-c2ccc3ncnc(Nc4ccc(OCc5cccc(F)c5)c(Cl)c4)c3c2)o1 [Lapatinib] (partner 2 µM)
How it was run: as §1

[3] = compound: OCc1c[nH]c2ccccc12 [Indole-3-carbinol] + Cc1nc(Nc2ncc(C(=O)Nc3c(C)cccc3Cl)s2)cc(N2CCN(CCO)CC2)n1 [Dasatinib] (partner 0.075 µM)
How it was run: as §1

[4] = compound: OCc1c[nH]c2ccccc12 [Indole-3-carbinol] + N=C(N)NC(=N)NCCc1ccccc1 [Phenformin] (partner 250 µM)
How it was run: as §1

[5] = compound: OCc1c[nH]c2ccccc12 [Indole-3-carbinol] + NC(=O)Nc1cc(-c2cccc(F)c2)sc1C(=O)N[C@H]1CCCNC1 [AZD7762] (partner 0.2 µM)
How it was run: as §1

Cell Line: NCI-H2087
- relative viability ([1]; first compound 0.253 µM): 0.807
- relative viability ([1]; first compound 0.8 µM): 1.15
- relative viability ([1]; first compound 2.53 µM): 1.01
- relative viability ([1]; first compound 8 µM): 0.942
- relative viability ([2]; first compound 0.253 µM): 1.32
- relative viability ([2]; first compound 0.8 µM): 0.952
- relative viability ([2]; first compound 2.53 µM): 1.12
- relative viability ([2]; first compound 8 µM): 0.814
- relative viability ([3]; first compound 0.253 µM): 0.985
- relative viability ([3]; first compound 0.8 µM): 0.942
- relative viability ([3]; first compound 2.53 µM): 0.936
- relative viability ([3]; first compound 8 µM): 0.78
- relative viability ([4]; first compound 0.253 µM): 0.45
- relative viability ([4]; first compound 0.8 µM): 0.525
- relative viability ([4]; first compound 2.53 µM): 0.466
- relative viability ([4]; first compound 8 µM): 0.386
- relative viability ([5]; first compound 0.253 µM): 1.31
- relative viability ([5]; first compound 0.8 µM): 1.46
- relative viability ([5]; first compound 2.53 µM): 1.33
- relative viability ([5]; first compound 8 µM): 1.15

Cell Line: NCI-H2126
- relative viability ([1]; first compound 0.253 µM): 0.751
- relative viability ([1]; first compound 0.8 µM): 0.808
- relative viability ([1]; first compound 2.53 µM): 0.714
- relative viability ([1]; first compound 8 µM): 0.764
- relative viability ([2]; first compound 0.253 µM): 0.761
- relative viability ([2]; first compound 0.8 µM): 0.741
- relative viability ([2]; first compound 2.53 µM): 0.78
- relative viability ([2]; first compound 8 µM): 0.748
- relative viability ([3]; first compound 0.253 µM): 0.618
- relative viability ([3]; first compound 0.8 µM): 0.683
- relative viability ([3]; first compound 2.53 µM): 0.592
- relative viability ([3]; first compound 8 µM): 0.632
- relative viability ([4]; first compound 0.253 µM): 0.51
- relative viability ([4]; first compound 0.8 µM): 0.518
- relative viability ([4]; first compound 2.53 µM): 0.525
- relative viability ([4]; first compound 8 µM): 0.512
- relative viability ([5]; first compound 0.253 µM): 0.999
- relative viability ([5]; first compound 0.8 µM): 1.08
- relative viability ([5]; first compound 2.53 µM): 1.02
- relative viability ([5]; first compound 8 µM): 1.01

Cell Line: NCI-H2170
- relative viability ([1]; first compound 0.253 µM): 0.794
- relative viability ([1]; first compound 0.8 µM): 0.815
- relative viability ([1]; first compound 2.53 µM): 0.738
- relative viability ([1]; first compound 8 µM): 0.81
- relative viability ([2]; first compound 0.253 µM): 0.281
- relative viability ([2]; first compound 0.8 µM): 0.28
- relative viability ([2]; first compound 2.53 µM): 0.253
- relative viability ([2]; first compound 8 µM): 0.289
- relative viability ([3]; first compound 0.253 µM): 0.588
- relative viability ([3]; first compound 0.8 µM): 0.644
- relative viability ([3]; first compound 2.53 µM): 0.703
- relative viability ([3]; first compound 8 µM): 0.594
- relative viability ([4]; first compound 0.253 µM): 0.451
- relative viability ([4]; first compound 0.8 µM): 0.385
- relative viability ([4]; first compound 2.53 µM): 0.432
- relative viability ([4]; first compound 8 µM): 0.418
- relative viability ([5]; first compound 0.253 µM): 1.01
- relative viability ([5]; first compound 0.8 µM): 0.898
- relative viability ([5]; first compound 2.53 µM): 0.89
- relative viability ([5]; first compound 8 µM): 0.894

Cell Line: NCI-H2347
- relative viability ([1]; first compound 0.253 µM): 1.06
- relative viability ([1]; first compound 0.8 µM): 1.08
- relative viability ([1]; first compound 2.53 µM): 1.14
- relative viability ([1]; first compound 8 µM): 0.868
- relative viability ([2]; first compound 0.253 µM): 0.937
- relative viability ([2]; first compound 0.8 µM): 1.03
- relative viability ([2]; first compound 2.53 µM): 1.08
- relative viability ([2]; first compound 8 µM): 0.672
- relative viability ([3]; first compound 0.253 µM): 0.303
- relative viability ([3]; first compound 0.8 µM): 0.26
- relative viability ([3]; first compound 2.53 µM): 0.313
- relative viability ([3]; first compound 8 µM): 0.344
- relative viability ([4]; first compound 0.253 µM): 0.405
- relative viability ([4]; first compound 0.8 µM): 0.34
- relative viability ([4]; first compound 2.53 µM): 0.496
- relative viability ([4]; first compound 8 µM): 0.435
- relative viability ([5]; first compound 0.253 µM): 0.936
- relative viability ([5]; first compound 0.8 µM): 0.676
- relative viability ([5]; first compound 2.53 µM): 0.702
- relative viability ([5]; first compound 8 µM): 0.765

Cell Line: NCI-H2405
- relative viability ([1]; first compound 0.253 µM): 0.901
- relative viability ([1]; first compound 0.8 µM): 0.661
- relative viability ([1]; first compound 2.53 µM): 0.988
- relative viability ([1]; first compound 8 µM): 0.749
- relative viability ([2]; first compound 0.253 µM): 1.06
- relative viability ([2]; first compound 0.8 µM): 1.08
- relative viability ([2]; first compound 2.53 µM): 1.16
- relative viability ([2]; first compound 8 µM): 1.02
- relative viability ([3]; first compound 0.253 µM): 0.212
- relative viability ([3]; first compound 0.8 µM): 0.211
- relative viability ([3]; first compound 2.53 µM): 0.2
- relative viability ([3]; first compound 8 µM): 0.214
- relative viability ([4]; first compound 0.253 µM): 0.426
- relative viability ([4]; first compound 0.8 µM): 0.376
- relative viability ([4]; first compound 2.53 µM): 0.391
- relative viability ([4]; first compound 8 µM): 0.44
- relative viability ([5]; first compound 0.253 µM): 0.839
- relative viability ([5]; first compound 0.8 µM): 0.727
- relative viability ([5]; first compound 2.53 µM): 0.755
- relative viability ([5]; first compound 8 µM): 0.659

Cell Line: NCI-H3122
- relative viability ([1]; first compound 0.253 µM): 0.878
- relative viability ([1]; first compound 0.8 µM): 0.879
- relative viability ([1]; first compound 2.53 µM): 0.855
- relative viability ([1]; first compound 8 µM): 0.74
- relative viability ([2]; first compound 0.253 µM): 1.05
- relative viability ([2]; first compound 0.8 µM): 1.01
- relative viability ([2]; first compound 2.53 µM): 1.04
- relative viability ([2]; first compound 8 µM): 1.05
- relative viability ([3]; first compound 0.253 µM): 0.839
- relative viability ([3]; first compound 0.8 µM): 0.771
- relative viability ([3]; first compound 2.53 µM): 0.969
- relative viability ([3]; first compound 8 µM): 0.851
- relative viability ([4]; first compound 0.253 µM): 0.391
- relative viability ([4]; first compound 0.8 µM): 0.364
- relative viability ([4]; first compound 2.53 µM): 0.413
- relative viability ([4]; first compound 8 µM): 0.381
- relative viability ([5]; first compound 0.253 µM): 1.1
- relative viability ([5]; first compound 0.8 µM): 1
- relative viability ([5]; first compound 2.53 µM): 1.07
- relative viability ([5]; first compound 8 µM): 0.899

Cell Line: PC-3 [JPC-3]
- relative viability ([1]; first compound 0.253 µM): 1.08
- relative viability ([1]; first compound 0.8 µM): 1.13
- relative viability ([1]; first compound 2.53 µM): 1.03
- relative viability ([1]; first compound 8 µM): 0.967
- relative viability ([2]; first compound 0.253 µM): 0.462
- relative viability ([2]; first compound 0.8 µM): 0.441
- relative viability ([2]; first compound 2.53 µM): 0.399
- relative viability ([2]; first compound 8 µM): 0.439
- relative viability ([3]; first compound 0.253 µM): 0.979
- relative viability ([3]; first compound 0.8 µM): 1.02
- relative viability ([3]; first compound 2.53 µM): 0.986
- relative viability ([3]; first compound 8 µM): 0.949
- relative viability ([4]; first compound 0.253 µM): 0.477
- relative viability ([4]; first compound 0.8 µM): 0.483
- relative viability ([4]; first compound 2.53 µM): 0.483
- relative viability ([4]; first compound 8 µM): 0.473
- relative viability ([5]; first compound 0.253 µM): 0.723
- relative viability ([5]; first compound 0.8 µM): 0.925
- relative viability ([5]; first compound 2.53 µM): 0.765
- relative viability ([5]; first compound 8 µM): 0.91

Cell Line: PC-14
- relative viability ([1]; first compound 0.253 µM): 0.995
- relative viability ([1]; first compound 0.8 µM): 0.955
- relative viability ([1]; first compound 2.53 µM): 0.888
- relative viability ([1]; first compound 8 µM): 0.93
- relative viability ([2]; first compound 0.253 µM): 0.288
- relative viability ([2]; first compound 0.8 µM): 0.321
- relative viability ([2]; first compound 2.53 µM): 0.342
- relative viability ([2]; first compound 8 µM): 0.266
- relative viability ([3]; first compound 0.253 µM): 0.265
- relative viability ([3]; first compound 0.8 µM): 0.287
- relative viability ([3]; first compound 2.53 µM): 0.27
- relative viability ([3]; first compound 8 µM): 0.26
- relative viability ([4]; first compound 0.253 µM): 0.586
- relative viability ([4]; first compound 0.8 µM): 0.536
- relative viability ([4]; first compound 2.53 µM): 0.582
- relative viability ([4]; first compound 8 µM): 0.5
- relative viability ([5]; first compound 0.253 µM): 0.342
- relative viability ([5]; first compound 0.8 µM): 0.315
- relative viability ([5]; first compound 2.53 µM): 0.331
- relative viability ([5]; first compound 8 µM): 0.327

Cell Line: RERF-LC-KJ
- relative viability ([1]; first compound 0.253 µM): 0.841
- relative viability ([1]; first compound 0.8 µM): 0.783
- relative viability ([1]; first compound 2.53 µM): 0.814
- relative viability ([1]; first compound 8 µM): 0.83
- relative viability ([2]; first compound 0.253 µM): 0.866
- relative viability ([2]; first compound 0.8 µM): 0.891
- relative viability ([2]; first compound 2.53 µM): 0.802
- relative viability ([2]; first compound 8 µM): 0.787
- relative viability ([3]; first compound 0.253 µM): 0.815
- relative viability ([3]; first compound 0.8 µM): 0.842
- relative viability ([3]; first compound 2.53 µM): 0.846
- relative viability ([3]; first compound 8 µM): 0.762
- relative viability ([4]; first compound 0.253 µM): 0.392
- relative viability ([4]; first compound 0.8 µM): 0.415
- relative viability ([4]; first compound 2.53 µM): 0.428
- relative viability ([4]; first compound 8 µM): 0.401
- relative viability ([5]; first compound 0.253 µM): 1.07
- relative viability ([5]; first compound 0.8 µM): 1.01
- relative viability ([5]; first compound 2.53 µM): 0.962
- relative viability ([5]; first compound 8 µM): 0.885
